# Data as given in ChEMBL document CHEMBL1201862, “PubChem BioAssay data set” (2004).
# Calls of active or inactive are those of the source.
# Experiments:
# [1] = target: ADP-ribosylation factor GTPase-activating protein 1 (Rattus norvegicus, UniProt Q62848); experiment: Fluorescence polarization-based biochemical high throughput dose response screening assay to identify inhibitors of ADP-ribosylation factor GTPase activating protein 1 (ARFGAP1).; format: functional
# [2] = target: Eukaryotic translation initiation factor 4H (Homo sapiens, UniProt Q15056); experiment: eIF4H binding inhibition – biochemical, uHTS, fluorescence polarization, translation initiation inhibitor project, primary screen (AID 2012)
# [3] = target: Polyadenylate-binding protein 1 (Homo sapiens, UniProt P11940); experiment: blockers of PABP interaction with poly(A) – biochemical, fluorescence polarization, […] (AID 2014)
# Polyadenylate-binding protein 1, sequence (P11940 whole entry, the tested form may be a part): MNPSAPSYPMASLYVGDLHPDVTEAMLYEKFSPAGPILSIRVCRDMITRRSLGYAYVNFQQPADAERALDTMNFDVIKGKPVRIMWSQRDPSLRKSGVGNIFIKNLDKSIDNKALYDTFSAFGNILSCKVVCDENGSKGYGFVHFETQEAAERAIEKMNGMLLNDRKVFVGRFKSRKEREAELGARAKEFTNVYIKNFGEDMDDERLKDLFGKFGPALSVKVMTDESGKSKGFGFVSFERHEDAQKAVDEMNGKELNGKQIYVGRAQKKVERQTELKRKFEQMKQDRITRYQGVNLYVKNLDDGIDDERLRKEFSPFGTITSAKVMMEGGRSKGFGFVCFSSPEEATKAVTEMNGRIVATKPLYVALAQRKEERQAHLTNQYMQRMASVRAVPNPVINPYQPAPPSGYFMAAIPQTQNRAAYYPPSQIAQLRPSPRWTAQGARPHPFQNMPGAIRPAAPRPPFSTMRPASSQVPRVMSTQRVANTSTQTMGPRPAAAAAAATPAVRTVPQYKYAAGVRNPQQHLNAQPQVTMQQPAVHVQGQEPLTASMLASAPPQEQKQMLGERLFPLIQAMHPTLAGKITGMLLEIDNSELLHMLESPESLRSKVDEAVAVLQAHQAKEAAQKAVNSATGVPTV
# [4] = target: T1, Carboxy-terminal domain RNA polymerase II polypeptide A small phosphatase 1 (Homo sapiens, UniProt Q9GZU7); experiment: CTDSP1 inhibitors, concentration-response, biochemical, absorbance readout, ultra-high-throughput screen actives (AID 540297); format: functional
# T1 sequence (Q9GZU7 whole entry): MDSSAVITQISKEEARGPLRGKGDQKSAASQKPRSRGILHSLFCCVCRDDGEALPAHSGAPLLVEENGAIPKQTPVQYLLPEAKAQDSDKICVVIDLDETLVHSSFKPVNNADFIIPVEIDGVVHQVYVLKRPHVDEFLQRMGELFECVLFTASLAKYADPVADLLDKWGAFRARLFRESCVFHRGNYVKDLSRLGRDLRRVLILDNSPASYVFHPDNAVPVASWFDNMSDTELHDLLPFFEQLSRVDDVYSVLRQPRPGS
# [5] = target: T2, Tyrosine-protein phosphatase non-receptor type 11 (Homo sapiens, UniProt Q06124); experiment: PTPN11 enzyme inhibitors – biochemical, selectivity assay for STEP inhibitor project, dose response (AID 602367); format: functional; details: read-out: IC50_Mean
# T2 sequence (Q06124 whole entry): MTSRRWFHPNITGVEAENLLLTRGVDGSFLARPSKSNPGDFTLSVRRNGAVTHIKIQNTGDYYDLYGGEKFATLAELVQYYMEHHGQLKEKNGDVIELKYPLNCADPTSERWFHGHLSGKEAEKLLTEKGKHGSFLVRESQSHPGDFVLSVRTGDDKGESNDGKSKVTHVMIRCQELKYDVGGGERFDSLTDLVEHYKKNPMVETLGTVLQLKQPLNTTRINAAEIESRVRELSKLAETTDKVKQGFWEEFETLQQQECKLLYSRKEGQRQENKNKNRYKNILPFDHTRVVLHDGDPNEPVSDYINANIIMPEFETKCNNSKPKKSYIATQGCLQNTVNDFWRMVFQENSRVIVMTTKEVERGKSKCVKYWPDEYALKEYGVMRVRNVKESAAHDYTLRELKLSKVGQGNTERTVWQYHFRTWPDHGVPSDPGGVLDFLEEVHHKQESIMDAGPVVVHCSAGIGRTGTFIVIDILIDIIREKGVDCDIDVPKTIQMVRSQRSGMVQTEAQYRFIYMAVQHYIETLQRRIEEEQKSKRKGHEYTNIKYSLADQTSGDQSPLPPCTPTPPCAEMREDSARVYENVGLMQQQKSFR
# [6] = target: T3, Tyrosine-protein phosphatase non-receptor type 5 (Homo sapiens, UniProt P54829); experiment: PTPN5 enzyme inhibition – biochemical, fluorescence intensity, uHTS hits, confirmation (AID 602372); format: functional; details: read-out: IC50_Mean
# T3 sequence (P54829 whole entry): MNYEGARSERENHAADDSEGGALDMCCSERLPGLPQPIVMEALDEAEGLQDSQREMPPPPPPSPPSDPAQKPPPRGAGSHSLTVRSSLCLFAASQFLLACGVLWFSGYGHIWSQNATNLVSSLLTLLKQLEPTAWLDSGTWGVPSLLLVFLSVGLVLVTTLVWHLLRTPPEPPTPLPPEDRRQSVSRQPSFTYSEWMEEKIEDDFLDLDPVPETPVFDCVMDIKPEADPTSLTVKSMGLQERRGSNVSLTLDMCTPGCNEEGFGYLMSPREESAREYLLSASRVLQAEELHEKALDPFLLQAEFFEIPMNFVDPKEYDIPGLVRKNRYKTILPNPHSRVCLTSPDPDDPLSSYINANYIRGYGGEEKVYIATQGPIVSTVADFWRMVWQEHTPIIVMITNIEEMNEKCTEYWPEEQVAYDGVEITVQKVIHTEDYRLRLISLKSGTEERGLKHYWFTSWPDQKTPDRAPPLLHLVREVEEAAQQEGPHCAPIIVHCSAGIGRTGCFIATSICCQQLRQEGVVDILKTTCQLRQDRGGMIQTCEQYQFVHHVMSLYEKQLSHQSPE
# [7] = target: Dual specificity protein phosphatase 3 (Homo sapiens, UniProt P51452); experiment: VHR phosphatase inhibition, dose response, selectivity assay for STEP inhibitor project, biochemical (AID 602374); format: functional; details: read-out: IC50_Mean
# Dual specificity protein phosphatase 3, sequence (P51452 whole entry): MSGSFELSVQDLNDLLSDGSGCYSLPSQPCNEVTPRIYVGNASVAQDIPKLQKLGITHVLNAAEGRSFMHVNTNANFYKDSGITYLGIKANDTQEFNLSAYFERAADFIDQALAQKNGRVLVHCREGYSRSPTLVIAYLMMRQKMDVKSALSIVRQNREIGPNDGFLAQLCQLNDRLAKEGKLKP
# [8] = target: T4, Small ubiquitin-related modifier 2 (Homo sapiens, UniProt P61956); experiment: disruption of SUMO2 interaction with SIM peptide – biochemical, fluorescence polarization, uHTS hits, selectivity assay for SUMO1 interaction inhibitor project, dose response (AID 624385); format: functional; details: read-out: IC50_Mean
# T4 sequence (P61956 whole entry): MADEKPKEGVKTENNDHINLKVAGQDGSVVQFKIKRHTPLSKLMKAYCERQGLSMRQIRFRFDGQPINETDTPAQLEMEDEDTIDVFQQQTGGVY
# [9] = target: T5, Small ubiquitin-related modifier 1 (Homo sapiens, UniProt P63165); experiment: SUMO1 protein interaction blockers, potency – biochemical, fluorescence polarization, uHTS hits, dose response (AID 624382); format: functional; details: read-out: IC50_Mean
# T5 sequence (P63165 whole entry): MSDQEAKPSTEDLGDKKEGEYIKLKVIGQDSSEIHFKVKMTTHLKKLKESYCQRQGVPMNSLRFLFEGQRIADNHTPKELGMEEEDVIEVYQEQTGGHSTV
# [10] = target: T4, Small ubiquitin-related modifier 2; experiment: SUMO2 binding disruption by SUMO1 hits – biochemical, FRET, human SUMO2, uHTS hits, selectivity assay for SUMO1 interaction inhibitor project, dose response (AID 624384); format: functional; details: read-out: IC50_Mean
# [11] = target: T5, Small ubiquitin-related modifier 1; experiment: SUMO1 protein-protein binding blockers, potency – biochemical, FRET, dose response (AID 624383); format: functional; details: read-out: IC50_Mean
# [12] = target: T6, Tyrosine-protein phosphatase non-receptor type 22 (Homo sapiens, UniProt Q9Y2R2); experiment: lymphoid phosphatase LYP inhibitors – biochemical, selectivity assay for STEP inhibitor project, dose response (AID 624241); format: functional
# T6 sequence (Q9Y2R2 whole entry): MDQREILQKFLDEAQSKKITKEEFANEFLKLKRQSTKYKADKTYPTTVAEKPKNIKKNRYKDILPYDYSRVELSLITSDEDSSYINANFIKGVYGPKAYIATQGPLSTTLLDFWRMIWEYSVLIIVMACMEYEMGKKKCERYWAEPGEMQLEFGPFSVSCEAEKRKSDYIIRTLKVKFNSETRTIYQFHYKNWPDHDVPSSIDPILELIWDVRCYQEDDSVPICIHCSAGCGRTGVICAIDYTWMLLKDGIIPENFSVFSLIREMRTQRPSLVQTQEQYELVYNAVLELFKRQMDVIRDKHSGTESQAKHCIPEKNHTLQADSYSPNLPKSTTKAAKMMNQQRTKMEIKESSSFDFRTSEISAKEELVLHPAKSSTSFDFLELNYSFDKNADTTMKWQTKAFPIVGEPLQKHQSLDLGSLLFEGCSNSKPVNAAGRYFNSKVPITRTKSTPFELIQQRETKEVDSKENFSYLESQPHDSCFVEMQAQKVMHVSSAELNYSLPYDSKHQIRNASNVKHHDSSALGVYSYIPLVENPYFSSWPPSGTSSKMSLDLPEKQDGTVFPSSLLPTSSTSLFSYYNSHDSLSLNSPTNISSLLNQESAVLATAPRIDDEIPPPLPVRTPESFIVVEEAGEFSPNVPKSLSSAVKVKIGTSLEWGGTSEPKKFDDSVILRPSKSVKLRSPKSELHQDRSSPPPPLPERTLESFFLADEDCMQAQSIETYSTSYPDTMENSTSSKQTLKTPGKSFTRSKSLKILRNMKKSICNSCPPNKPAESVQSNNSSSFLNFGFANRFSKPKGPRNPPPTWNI
# [13] = target: T7, Sentrin-specific protease 8 (Homo sapiens, UniProt Q96LD8); format: functional
# T7 sequence (Q96LD8 whole entry): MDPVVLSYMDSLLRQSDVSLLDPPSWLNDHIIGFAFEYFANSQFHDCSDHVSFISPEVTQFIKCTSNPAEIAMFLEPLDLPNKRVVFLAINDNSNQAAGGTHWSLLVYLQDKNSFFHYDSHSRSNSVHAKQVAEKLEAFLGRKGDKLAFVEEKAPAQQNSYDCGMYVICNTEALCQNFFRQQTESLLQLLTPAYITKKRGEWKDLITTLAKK
# [14] = target: T7, Sentrin-specific protease 8; format: functional; remark: listed apart in the source
# [15] = cytotoxicity toward MDA-MB-231 breast cancer cells – cell-based, CellTiter-Glo luminescence, cherry-pick, cytotoxicity control for RAD54 inhibitor project, dose response (AID 651692); format: functional
# [16] = target: T8, DNA repair and recombination protein RAD54-like (Homo sapiens, UniProt Q92698); experiment: RAD54 Holliday junction migration blockers – biochemical, fluorescence, cherry-picked samples, dose series, confirmation (AID 651657); format: functional
# T8 sequence (Q92698 whole entry): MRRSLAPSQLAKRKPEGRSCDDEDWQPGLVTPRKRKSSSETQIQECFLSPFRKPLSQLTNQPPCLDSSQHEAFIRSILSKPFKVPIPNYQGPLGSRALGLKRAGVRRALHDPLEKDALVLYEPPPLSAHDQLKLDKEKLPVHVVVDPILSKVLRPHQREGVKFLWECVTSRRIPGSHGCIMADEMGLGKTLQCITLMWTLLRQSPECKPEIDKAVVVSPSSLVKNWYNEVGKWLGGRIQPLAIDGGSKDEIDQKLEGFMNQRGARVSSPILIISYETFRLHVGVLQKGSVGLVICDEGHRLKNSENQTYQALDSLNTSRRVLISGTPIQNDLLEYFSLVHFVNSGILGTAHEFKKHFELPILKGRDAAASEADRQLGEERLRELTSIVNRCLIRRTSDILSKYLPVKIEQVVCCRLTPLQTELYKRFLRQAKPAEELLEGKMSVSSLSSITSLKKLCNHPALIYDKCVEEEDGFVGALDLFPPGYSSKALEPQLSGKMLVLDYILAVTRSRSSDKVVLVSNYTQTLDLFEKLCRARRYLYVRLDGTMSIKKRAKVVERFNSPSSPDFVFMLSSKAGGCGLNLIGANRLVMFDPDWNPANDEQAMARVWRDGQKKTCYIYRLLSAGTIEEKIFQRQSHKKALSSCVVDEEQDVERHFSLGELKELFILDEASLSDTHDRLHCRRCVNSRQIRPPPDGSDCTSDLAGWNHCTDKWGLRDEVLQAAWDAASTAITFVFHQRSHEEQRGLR
# [17] = target: T9, DNA repair protein RAD52 homolog (Homo sapiens, UniProt P43351); format: functional, biochemical
# T9 sequence (P43351 whole entry): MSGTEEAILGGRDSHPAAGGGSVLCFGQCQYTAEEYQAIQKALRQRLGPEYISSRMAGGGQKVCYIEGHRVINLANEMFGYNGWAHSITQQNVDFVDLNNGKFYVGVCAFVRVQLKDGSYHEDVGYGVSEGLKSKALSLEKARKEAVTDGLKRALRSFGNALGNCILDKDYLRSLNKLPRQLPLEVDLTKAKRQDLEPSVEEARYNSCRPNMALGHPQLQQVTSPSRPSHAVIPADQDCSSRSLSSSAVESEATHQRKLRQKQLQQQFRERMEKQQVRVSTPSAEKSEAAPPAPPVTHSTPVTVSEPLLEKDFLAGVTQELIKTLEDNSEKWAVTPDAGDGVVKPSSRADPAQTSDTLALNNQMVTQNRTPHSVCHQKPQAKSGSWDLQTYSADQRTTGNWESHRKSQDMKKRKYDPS
# [18] = cytotoxicity in HEK293 background cells – cell-based, dry powder, set 2, counter-screen for EBV LMP1 inhibitor project, dose response (AID 624374); format: functional
# Beta-lactamase [19] = target: Beta-lactamase (Salmonella choleraesuis (strain SC-B67), UniProt Q5J463); experiment: Epi-absorbance-based counterscreen for selective VIM-2 inhibitors: dose response biochemical high throughput screening assay to identify inhibitors of TEM-1 serine-beta-lactamase.
# Beta-lactamase (Salmonella choleraesuis (strain SC-B67), UniProt Q5J463), sequence (Q5J463 whole entry): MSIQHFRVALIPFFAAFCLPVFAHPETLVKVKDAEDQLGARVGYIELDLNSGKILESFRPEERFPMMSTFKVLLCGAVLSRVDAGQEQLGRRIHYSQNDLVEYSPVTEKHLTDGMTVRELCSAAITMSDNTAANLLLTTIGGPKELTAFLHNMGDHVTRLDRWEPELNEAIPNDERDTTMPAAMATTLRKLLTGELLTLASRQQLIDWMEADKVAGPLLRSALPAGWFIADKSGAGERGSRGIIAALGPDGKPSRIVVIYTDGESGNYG
# Beta-lactamase [20] = target: T10, Beta-lactamase (Pseudomonas aeruginosa, UniProt Q79MP6); experiment: inhibition of IMP-1 beta-lactamase activity – biochemical, epi-absorbance, selectivity assay for VIM-2 inhibitor project, dose response (AID 1920)
# T10 sequence (Q79MP6 whole entry): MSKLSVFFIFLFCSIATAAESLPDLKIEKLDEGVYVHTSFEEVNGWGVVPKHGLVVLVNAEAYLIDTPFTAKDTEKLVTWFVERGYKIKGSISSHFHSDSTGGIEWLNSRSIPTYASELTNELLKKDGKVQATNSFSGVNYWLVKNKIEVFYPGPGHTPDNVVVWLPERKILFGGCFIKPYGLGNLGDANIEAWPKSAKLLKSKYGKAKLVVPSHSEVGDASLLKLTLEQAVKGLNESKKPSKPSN
# Beta Lactamase [21] = target: T11, Beta Lactamase (Pseudomonas aeruginosa, UniProt Q932Y6); experiment: concentration-dependent VIM-2 enzyme inhibition – biochemical, epi-absorbance readout, selective inhibitors, dose response (AID 1919)
# T11 sequence (Q932Y6 whole entry): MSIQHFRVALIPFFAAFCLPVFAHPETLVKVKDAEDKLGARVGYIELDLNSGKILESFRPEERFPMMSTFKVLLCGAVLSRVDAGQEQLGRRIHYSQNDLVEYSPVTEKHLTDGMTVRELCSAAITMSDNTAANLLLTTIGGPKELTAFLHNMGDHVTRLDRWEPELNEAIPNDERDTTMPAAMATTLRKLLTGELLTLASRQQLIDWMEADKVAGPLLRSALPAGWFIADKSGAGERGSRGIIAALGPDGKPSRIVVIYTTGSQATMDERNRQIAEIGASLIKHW
# Beta-lactamase [22] = target: T10, Beta-lactamase; experiment: […] counterscreen for selective VIM-2 inhibitors: dose response biochemical high throughput screening assay to identify inhibitors of IMP-1 metallo-beta-lactamase.
# Beta Lactamase [23] = target: T11, Beta Lactamase; experiment: VIM-2 CCF2 hydrolysis inhibition, assay artifact filter – biochemical, FRET readout, CCF2 substrate, artefact control for selective VIM-2 inhibitor project, dose response (AID 1926)
# Genome polyprotein = Genome polyprotein (dengue virus type 2, UniProt P29990); experiment: flavivirus cap methylation enzyme inhibition – biochemical, confirmation dose response, primary screen (AID 588689); format: functional
# Genome polyprotein, sequence (P29990 2492-3391 limits assumed): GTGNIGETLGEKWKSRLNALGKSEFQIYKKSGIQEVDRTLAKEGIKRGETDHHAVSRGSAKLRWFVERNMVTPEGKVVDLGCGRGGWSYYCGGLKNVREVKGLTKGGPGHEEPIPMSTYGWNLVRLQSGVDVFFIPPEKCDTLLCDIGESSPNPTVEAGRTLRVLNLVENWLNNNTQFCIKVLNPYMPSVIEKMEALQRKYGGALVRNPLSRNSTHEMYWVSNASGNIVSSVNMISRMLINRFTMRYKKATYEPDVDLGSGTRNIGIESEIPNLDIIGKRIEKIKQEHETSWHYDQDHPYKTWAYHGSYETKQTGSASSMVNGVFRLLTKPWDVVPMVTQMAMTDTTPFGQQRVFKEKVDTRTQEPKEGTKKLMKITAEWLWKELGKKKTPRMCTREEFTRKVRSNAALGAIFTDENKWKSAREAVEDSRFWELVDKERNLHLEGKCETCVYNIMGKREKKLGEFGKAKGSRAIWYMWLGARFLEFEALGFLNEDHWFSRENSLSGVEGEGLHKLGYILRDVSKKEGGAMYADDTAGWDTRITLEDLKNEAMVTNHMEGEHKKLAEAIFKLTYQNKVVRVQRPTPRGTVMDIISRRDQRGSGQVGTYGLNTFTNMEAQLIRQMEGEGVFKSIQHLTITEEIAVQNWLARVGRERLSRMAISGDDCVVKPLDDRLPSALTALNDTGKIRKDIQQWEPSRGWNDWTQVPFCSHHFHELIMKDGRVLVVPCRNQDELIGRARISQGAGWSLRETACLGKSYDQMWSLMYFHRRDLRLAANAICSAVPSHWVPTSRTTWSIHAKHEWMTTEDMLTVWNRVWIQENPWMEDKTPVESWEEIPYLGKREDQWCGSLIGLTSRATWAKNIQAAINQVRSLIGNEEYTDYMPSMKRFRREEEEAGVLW
# ADP-ribosylation factor GTPase-activating protein 1, sequence (Q62848 whole entry): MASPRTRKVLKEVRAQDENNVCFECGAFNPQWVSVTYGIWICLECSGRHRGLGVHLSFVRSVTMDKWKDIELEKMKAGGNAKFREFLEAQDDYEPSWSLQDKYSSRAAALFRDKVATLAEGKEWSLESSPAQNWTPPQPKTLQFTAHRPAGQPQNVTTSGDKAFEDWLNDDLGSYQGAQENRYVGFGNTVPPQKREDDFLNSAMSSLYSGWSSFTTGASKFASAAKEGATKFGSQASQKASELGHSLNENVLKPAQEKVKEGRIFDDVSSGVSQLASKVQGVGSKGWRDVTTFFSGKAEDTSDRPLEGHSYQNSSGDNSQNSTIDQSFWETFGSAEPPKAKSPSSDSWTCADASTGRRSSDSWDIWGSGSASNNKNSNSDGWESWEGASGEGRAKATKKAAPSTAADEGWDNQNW
smiles,measurement,setting,value
Cc1ccc(NC(=O)NNC(=O)COc2ccc([N+](=O)[O-])cc2)cc1C,IC50,[1],34.5 µM (inactive)
O=C(Nc1cc([N+](=O)[O-])ccc1O)c1cccc(C(=O)Nc2cc([N+](=O)[O-])ccc2O)c1,IC50,[2],7.71 µM (active)
same,IC50,[3],8.96 µM (active)
same,IC50,[4],1.03 µM (active)
same,IC50,[5],0.456 µM (active)
same,IC50,[6],1.98 µM (active)
same,IC50,[7],0.509 µM (active)
same,IC50,[8],9.33 µM (active)
same,IC50,[9],0.751 µM (active)
same,IC50,[10],> 66 µM (inactive)
same,IC50,[11],53.8 µM (inactive)
same,IC50,[12],8.76 µM (active)
O=C(c1ccccc1)[C-](C(=O)c1ccc(Cl)cc1)[n+]1ccc2ccccc2c1,IC50,[13],> 100 µM (inactive)
same,IC50,[14],9.23 µM (active)
COc1cc(C(=O)NC2CCN(C)CC2)ccc1Nc1ncc2c(n1)N(C1CCCCC1)CCC(=O)N2C,AC50,[15],32.5 µM (active)
same,AC50,[16],12 µM (active)
same,AC50,[17],5.86 µM (active)
Cc1noc(C)c1S(=O)(=O)Nc1ccc2c(c1)C(=O)N([C@H](C)CO)C[C@H](C)[C@H](CN(C)Cc1ccc(C(F)(F)F)cc1)OCCCC[C@@H](C)O2,AbsAC35,[18],79.09 µM
Oc1c(Br)cc(/C=N/n2c(S)nnc2-c2ccccc2)cc1Br,IC50,Beta-lactamase [19],> 59.6 µM (inactive)
same,IC50,Beta-lactamase [20],> 59.6 µM (inactive)
same,IC50,Beta Lactamase [21],19.3 µM (inactive)
same,IC50,Beta-lactamase [22],> 19.9 µM (inactive)
same,IC50,Beta Lactamase [23],6.1 µM (active)
same,IC50,Genome polyprotein,27.5 µM (active)
same,IC50,[4],1.54 µM (active)
